# Experimental data published in ChEMBL document CHEMBL1201862, “PubChem BioAssay data set” (2004).
#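 A five-concentration, 48-hour dose response in 96-well plates underlies each endpoint, interpolated linearly between surrounding concentrations. GI50 is the concentration that inhibits growth by half.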 The source made the active and inactive calls. No stated cut-off is given here; in the data, active = GI50 up to about 1.1 µM and inactive = higher.
# Experiments:
# Assay in all cases: DTP human tumour cell line panel, 48 h
# SR = test system: SR
# T47D = test system: T47D
# SK-MEL-5 = test system: SK-MEL-5
# HT-29 = test system: HT-29
# SK-MEL-28 = test system: SK-MEL-28
# Hs-578T = test system: Hs-578T
# HCT-15 = test system: HCT-15
# UACC-62 = test system: UACC-62
# SF-295 = test system: SF-295
# SN12C = test system: SN12C
# SNB-75 = test system: SNB-75
# IGROV-1 = test system: IGROV-1
# M14 = test system: M14
# U-251 = test system: U-251
# LOX IMVI = test system: LOX IMVI
# SK-OV-3 = test system: SK-OV-3
# MDA-MB-231 = test system: MDA-MB-231
# CAKI-1 = test system: CAKI-1
# SNB-19 = test system: SNB-19
# UACC-257 = test system: UACC-257
# COLO 205 = test system: COLO 205
# 786-0 = test system: 786-0
# PC-3 = test system: PC-3
# MOLT-4 = test system: MOLT-4
# DU-145 = test system: DU-145
# SW-620 = test system: SW-620
# SF-539 = test system: SF-539
# NCI-H226 = test system: NCI-H226
# A549 = test system: A549
# OVCAR-4 = test system: OVCAR-4
# HOP-92 = test system: HOP-92
# NCI-H522 = test system: NCI-H522
# ACHN = test system: ACHN
# HOP-62 = test system: HOP-62
# HCT-116 = test system: HCT-116
# NCI-H460 = test system: NCI-H460
# OVCAR-5 = test system: OVCAR-5
# RXF 393 = test system: RXF 393
# MDA-MB-435 = test system: MDA-MB-435
# A498 = test system: A498
# Malme-3M = test system: Malme-3M
# OVCAR-8 = test system: OVCAR-8
# SK-MEL-2 = test system: SK-MEL-2
# NCI/ADR-RES = test system: NCI/ADR-RES
# NCI-H23 = test system: NCI-H23
# HL-60 = test system: HL-60
# RPMI-8226 = test system: RPMI-8226
# SF-268 = test system: SF-268
# MDA-N = test system: MDA-N
# EKVX = test system: EKVX
# BT-549 = test system: BT-549
# KM12 = test system: KM12
# K562 = test system: K562
# TK-10 = test system: TK-10
# UO-31 = test system: UO-31
# CCRF-CEM = test system: CCRF-CEM
# OVCAR-3 = test system: OVCAR-3
# HCC 2998 = test system: HCC 2998
# MCF7 = test system: MCF7
structure (smiles),measurement,setting,value
c1nc(NCCc2c[nH]cn2)c2nc[nH]c2n1,GI50,SR,> 100 µM (inactive)
same,GI50,T47D,> 100 µM (inactive)
same,GI50,SK-MEL-5,> 100 µM (inactive)
same,GI50,HT-29,> 100 µM (inactive)
same,GI50,SK-MEL-28,> 100 µM (inactive)
same,GI50,Hs-578T,> 100 µM (inactive)
same,GI50,HCT-15,> 100 µM
same,GI50,UACC-62,> 100 µM (inactive)
same,GI50,SF-295,> 100 µM (inactive)
same,GI50,SN12C,> 100 µM (inactive)
same,GI50,SNB-75,64.3 µM (inactive)
same,GI50,IGROV-1,> 100 µM (inactive)
same,GI50,M14,> 100 µM (inactive)
same,GI50,U-251,> 100 µM (inactive)
same,GI50,LOX IMVI,> 100 µM (inactive)
same,GI50,SK-OV-3,> 100 µM (inactive)
same,GI50,MDA-MB-231,> 100 µM (inactive)
same,GI50,CAKI-1,> 100 µM (inactive)
same,GI50,SNB-19,> 100 µM (inactive)
same,GI50,UACC-257,> 100 µM (inactive)
same,GI50,COLO 205,> 100 µM (inactive)
same,GI50,786-0,> 100 µM (inactive)
same,GI50,PC-3,> 100 µM (inactive)
same,GI50,MOLT-4,> 100 µM (inactive)
same,GI50,DU-145,> 100 µM (inactive)
same,GI50,SW-620,> 100 µM (inactive)
same,GI50,SF-539,> 100 µM (inactive)
same,GI50,NCI-H226,91.6 µM (inactive)
same,GI50,A549,> 100 µM (inactive)
same,GI50,OVCAR-4,> 100 µM (inactive)
same,GI50,HOP-92,> 100 µM (inactive)
same,GI50,NCI-H522,> 100 µM (inactive)
same,GI50,ACHN,> 100 µM (inactive)
same,GI50,HOP-62,> 100 µM (inactive)
same,GI50,HCT-116,> 100 µM (inactive)
same,GI50,NCI-H460,> 100 µM (inactive)
same,GI50,OVCAR-5,> 100 µM (inactive)
same,GI50,RXF 393,> 100 µM (inactive)
same,GI50,MDA-MB-435,> 100 µM (inactive)
same,GI50,A498,> 100 µM (inactive)
same,GI50,Malme-3M,> 100 µM (inactive)
same,GI50,OVCAR-8,> 100 µM (inactive)
same,GI50,SK-MEL-2,> 100 µM (inactive)
same,GI50,NCI/ADR-RES,> 100 µM (inactive)
same,GI50,NCI-H23,> 100 µM (inactive)
same,GI50,HL-60,26.7 µM (inactive)
same,GI50,RPMI-8226,> 100 µM (inactive)
same,GI50,SF-268,> 100 µM (inactive)
same,GI50,MDA-N,> 100 µM (inactive)
same,GI50,EKVX,46.2 µM (inactive)
same,GI50,BT-549,> 100 µM (inactive)
same,GI50,KM12,> 100 µM (inactive)
same,GI50,K562,> 100 µM (inactive)
same,GI50,TK-10,> 100 µM (inactive)
same,GI50,UO-31,> 100 µM (inactive)
same,GI50,CCRF-CEM,> 100 µM (inactive)
same,GI50,OVCAR-3,> 100 µM (inactive)
CC(=O)OCCCCn1nncc1Cn1ccc(=O)n(Cc2cnnn2CCCCOC(C)=O)c1=O,GI50,T47D,> 100 µM (inactive)
same,GI50,SK-MEL-5,> 100 µM (inactive)
same,GI50,HCC 2998,> 100 µM (inactive)
same,GI50,SK-MEL-28,> 100 µM (inactive)
same,GI50,Hs-578T,> 100 µM (inactive)
same,GI50,HCT-15,> 100 µM
same,GI50,UACC-62,> 10 µM (inactive)
same,GI50,SF-295,> 100 µM (inactive)
same,GI50,SN12C,> 100 µM (inactive)
same,GI50,SNB-75,> 100 µM (inactive)
same,GI50,IGROV-1,> 100 µM (inactive)
same,GI50,M14,> 100 µM (inactive)
same,GI50,U-251,> 100 µM (inactive)
same,GI50,LOX IMVI,> 100 µM (inactive)
same,GI50,SK-OV-3,> 100 µM (inactive)
same,GI50,MDA-MB-231,> 100 µM (inactive)
same,GI50,CAKI-1,> 100 µM (inactive)
same,GI50,SNB-19,> 100 µM (inactive)
same,GI50,UACC-257,> 100 µM (inactive)
same,GI50,COLO 205,> 100 µM (inactive)
same,GI50,786-0,> 100 µM (inactive)
same,GI50,PC-3,> 100 µM (inactive)
same,GI50,MOLT-4,> 100 µM (inactive)
same,GI50,DU-145,> 100 µM (inactive)
same,GI50,MCF7,> 100 µM (inactive)
same,GI50,SW-620,> 100 µM (inactive)
same,GI50,SF-539,> 100 µM (inactive)
same,GI50,NCI-H226,> 100 µM (inactive)
same,GI50,A549,> 100 µM (inactive)
same,GI50,OVCAR-4,> 100 µM (inactive)
same,GI50,HOP-92,> 100 µM (inactive)
same,GI50,ACHN,> 100 µM (inactive)
same,GI50,HOP-62,> 100 µM (inactive)
same,GI50,HCT-116,> 100 µM (inactive)
same,GI50,OVCAR-5,> 100 µM (inactive)
same,GI50,RXF 393,> 100 µM (inactive)
same,GI50,MDA-MB-435,> 100 µM (inactive)
same,GI50,A498,> 100 µM (inactive)
same,GI50,Malme-3M,> 100 µM (inactive)
same,GI50,OVCAR-8,> 100 µM (inactive)
same,GI50,SK-MEL-2,> 100 µM (inactive)
same,GI50,NCI/ADR-RES,> 100 µM (inactive)
same,GI50,NCI-H23,> 100 µM (inactive)
same,GI50,RPMI-8226,> 100 µM (inactive)
same,GI50,SF-268,> 100 µM (inactive)
same,GI50,MDA-N,> 100 µM (inactive)
same,GI50,EKVX,> 100 µM (inactive)
same,GI50,BT-549,> 100 µM (inactive)
same,GI50,KM12,> 100 µM (inactive)
same,GI50,TK-10,> 100 µM (inactive)
same,GI50,UO-31,> 100 µM (inactive)
same,GI50,CCRF-CEM,0.385 µM (active)
same,GI50,OVCAR-3,> 100 µM (inactive)
CC(C(O)c1ccccc1)N(C)/N=N/c1nc2c([nH]1)c(=O)n(C)c(=O)n2C (stereo not drawn),GI50,T47D,85.5 µM (inactive)
same,GI50,SK-MEL-5,66.8 µM (inactive)
same,GI50,HCC 2998,39.9 µM (inactive)
same,GI50,HT-29,39.6 µM (inactive)
same,GI50,SK-MEL-28,> 100 µM (inactive)
same,GI50,Hs-578T,> 100 µM (inactive)
same,GI50,HCT-15,90.4 µM
same,GI50,UACC-62,> 100 µM (inactive)
same,GI50,SF-295,> 100 µM (inactive)
same,GI50,SN12C,52.6 µM (inactive)
same,GI50,SNB-75,> 100 µM (inactive)
same,GI50,IGROV-1,35.2 µM (inactive)
same,GI50,M14,> 100 µM (inactive)
same,GI50,U-251,> 100 µM (inactive)
same,GI50,SK-OV-3,> 100 µM (inactive)
same,GI50,MDA-MB-231,92.3 µM (inactive)
same,GI50,CAKI-1,58.6 µM (inactive)
same,GI50,SNB-19,> 100 µM (inactive)
same,GI50,UACC-257,> 100 µM (inactive)
same,GI50,COLO 205,41.4 µM (inactive)
same,GI50,786-0,74.1 µM (inactive)
same,GI50,PC-3,95.3 µM (inactive)
same,GI50,MOLT-4,38.3 µM (inactive)
same,GI50,DU-145,99.3 µM (inactive)
same,GI50,MCF7,26.1 µM (inactive)
same,GI50,SW-620,> 100 µM (inactive)
same,GI50,NCI-H226,> 100 µM (inactive)
same,GI50,A549,50.8 µM (inactive)
same,GI50,OVCAR-4,> 100 µM (inactive)
same,GI50,ACHN,36.6 µM (inactive)
same,GI50,HOP-62,> 100 µM (inactive)
same,GI50,HCT-116,> 100 µM (inactive)
same,GI50,NCI-H460,25.2 µM (inactive)
same,GI50,OVCAR-5,> 100 µM (inactive)
same,GI50,RXF 393,42.9 µM (inactive)
same,GI50,MDA-MB-435,75.3 µM (inactive)
same,GI50,Malme-3M,> 100 µM (inactive)
same,GI50,OVCAR-8,> 100 µM (inactive)
same,GI50,SK-MEL-2,> 100 µM (inactive)
same,GI50,NCI/ADR-RES,> 100 µM (inactive)
same,GI50,NCI-H23,60.8 µM (inactive)
same,GI50,HL-60,> 100 µM (inactive)
same,GI50,RPMI-8226,48.9 µM (inactive)
same,GI50,SF-268,> 100 µM (inactive)
same,GI50,MDA-N,44.8 µM (inactive)
same,GI50,EKVX,88.1 µM (inactive)
same,GI50,BT-549,> 100 µM (inactive)
same,GI50,KM12,46.2 µM (inactive)
same,GI50,K562,91 µM (inactive)
same,GI50,TK-10,64.1 µM (inactive)
same,GI50,UO-31,> 100 µM (inactive)
same,GI50,CCRF-CEM,47.2 µM (inactive)
same,GI50,OVCAR-3,> 100 µM (inactive)
